Reference: ChEMBL document CHEMBL1201862, “PubChem BioAssay data set” (2004)
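Test compounds were applied to cells in 96-well plates for 48 hours at 5 doses. GI50 is the concentration that inhibits growth by half.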 Activity calls are given as the source filed them. Cut-off read from the data, not from the text of the source: active = GI50 up to about 1.1 µM and inactive = higher.

Key:
Assay in all cases: growth of human tumour cells (NCI), 48 h
HCC 2998 = system: HCC 2998
MDA-MB-435 = system: MDA-MB-435
OVCAR-5 = system: OVCAR-5
NCI/ADR-RES = system: NCI/ADR-RES
SW-620 = system: SW-620
SK-MEL-2 = system: SK-MEL-2
HL-60 = system: HL-60
MOLT-4 = system: MOLT-4
UACC-257 = system: UACC-257
SR = system: SR
SF-539 = system: SF-539
CCRF-CEM = system: CCRF-CEM
Hs-578T = system: Hs-578T
HCT-15 = system: HCT-15
U-251 = system: U-251
KM12 = system: KM12
SF-295 = system: SF-295
UO-31 = system: UO-31
CAKI-1 = system: CAKI-1
MDA-MB-231 = system: MDA-MB-231

| Structure (SMILES) | GI50 (HCC 2998) | GI50 (MDA-MB-435) | GI50 (OVCAR-5) | GI50 (NCI/ADR-RES) | GI50 (SW-620) | GI50 (SK-MEL-2) | GI50 (HL-60) | GI50 (MOLT-4) | GI50 (UACC-257) | GI50 (SR) | GI50 (SF-539) | GI50 (CCRF-CEM) | GI50 (Hs-578T) | GI50 (HCT-15) [µM] | GI50 (U-251) | GI50 (KM12) | GI50 (SF-295) | GI50 (UO-31) | GI50 (CAKI-1) | GI50 (MDA-MB-231) |
| --- | --- | --- | --- | --- | --- | --- | --- | --- | --- | --- | --- | --- | --- | --- | --- | --- | --- | --- | --- | --- |
| C=C(CN)CO[Si](C)(C)C(C)(C)C | > 100 µM (inactive) | > 100 µM (inactive) | > 100 µM (inactive) | > 100 µM (inactive) | > 100 µM (inactive) | > 100 µM (inactive) | > 100 µM (inactive) | > 100 µM (inactive) | > 100 µM (inactive) | > 100 µM (inactive) | > 100 µM (inactive) | > 100 µM (inactive) | > 100 µM (inactive) | > 100 | > 100 µM (inactive) | > 100 µM (inactive) | > 100 µM (inactive) | > 100 µM (inactive) | > 100 µM (inactive) | > 100 µM (inactive) |
| Nc1nnc(-c2ccco2)c(-c2ccco2)n1 | > 100 µM (inactive) | > 100 µM (inactive) | > 100 µM (inactive) | > 100 µM (inactive) | > 100 µM (inactive) | > 100 µM (inactive) | > 100 µM (inactive) | > 100 µM (inactive) | > 100 µM (inactive) | > 100 µM (inactive) | > 100 µM (inactive) | > 100 µM (inactive) | > 100 µM (inactive) | > 100 | > 100 µM (inactive) | > 100 µM (inactive) | > 100 µM (inactive) | 49.9 µM (inactive) | > 100 µM (inactive) | > 100 µM (inactive) |
| CC[C@]12CCCN3CCc4c(n(c5ccccc45)C(=O)C1)[C@@H]32 [VINBURNINE] | 3.92 µM (inactive) | 1.26 µM (inactive) | 34.6 µM (inactive) | 3.25 µM (inactive) | 3.94 µM (inactive) | 4.92 µM (inactive) | 2.65 µM (inactive) | 12.2 µM (inactive) | 15.2 µM (inactive) | 1.31 µM (inactive) | 7.91 µM (inactive) | 1.31 µM (inactive) | 9.33 µM (inactive) | 4.15 | 4.88 µM (inactive) | 4.54 µM (inactive) | 3.58 µM (inactive) | 4.75 µM (inactive) | > 100 µM (inactive) | 9.35 µM (inactive) |
